# Legend:
# [1] = target: full length SSTR2A fusion protein (HT1080 clones 21, 3, 11) (Homo sapiens, UniProt P30874)
# [2] = target: intracellular tail minus SSTR2A fusion protein (HT1080 clones tail-1, tail-4) (Homo sapiens, UniProt P30874)
# intracellular tail minus SSTR2A fusion protein (HT1080 clones tail-1, tail-4), sequence (P30874 1-314): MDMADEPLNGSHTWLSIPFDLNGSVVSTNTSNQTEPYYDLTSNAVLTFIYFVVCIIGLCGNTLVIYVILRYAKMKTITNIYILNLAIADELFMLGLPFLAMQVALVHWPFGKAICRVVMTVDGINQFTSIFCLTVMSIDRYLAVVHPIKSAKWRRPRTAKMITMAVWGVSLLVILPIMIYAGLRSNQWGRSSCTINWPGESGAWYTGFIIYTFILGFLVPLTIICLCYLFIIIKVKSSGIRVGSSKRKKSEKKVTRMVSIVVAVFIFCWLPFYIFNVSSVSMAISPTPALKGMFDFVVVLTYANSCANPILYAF
# full length SSTR2A fusion protein (HT1080 clones 21, 3, 11), sequence (P30874 whole entry, the tested form may be a part): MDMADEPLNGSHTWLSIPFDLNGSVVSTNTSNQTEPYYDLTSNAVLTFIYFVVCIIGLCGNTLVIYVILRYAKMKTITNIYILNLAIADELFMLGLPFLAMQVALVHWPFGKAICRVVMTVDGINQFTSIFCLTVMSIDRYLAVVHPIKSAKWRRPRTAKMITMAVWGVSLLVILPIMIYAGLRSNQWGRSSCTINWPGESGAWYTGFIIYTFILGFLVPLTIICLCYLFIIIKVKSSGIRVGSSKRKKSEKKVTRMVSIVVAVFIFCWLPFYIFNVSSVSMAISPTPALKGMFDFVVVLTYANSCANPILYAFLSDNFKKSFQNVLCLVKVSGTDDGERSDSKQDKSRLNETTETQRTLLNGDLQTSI
substance,measurement,setting,value
^111In-octreotide,"Specific binding, order among clones",[1],greater for clone 21 than 3 than 11
same,counts per minute bound,[1],more counts per minute without the addition of cold somastotin-28 then with its addition
same,counts per minute bound,[2],more counts per minute without the addition of cold somastotin-28 then with its addition
